Assay: Comparison of blood glucose lowering with glibenclamide
Type: in vivo
Details: data not shown

In the case of COc1ccc(Cl)cc1C(=O)NCCc1ccc(S(=O)(=O)NC(=O)NC2CCCCC2)cc1 [glibenclamide], the “blood glucose lowering activity compared with EH-36” value is reported as “comparable blood glucose lowering activities” and the “onset of the effect compared with EH-36” value is reported as “faster”.

From paper PMC3822934 (Journal of Cellular and Molecular Medicine, 2012)
